This passage reports EC50 results from BindingDB's records for doi:10.7270/Q2J38R0R (Burnham Center For Chemical Genomics, 2010).

The target of the assay is Intestinal-type alkaline phosphatase (Mus musculus, UniProt P24822). The experiment in a line: mouse intestinal alkaline phosphatase activators, dose response, biochemical, luminescence, uHTS hits (AID 488783).
Intestinal-type alkaline phosphatase, sequence (P24822 whole entry, looked up): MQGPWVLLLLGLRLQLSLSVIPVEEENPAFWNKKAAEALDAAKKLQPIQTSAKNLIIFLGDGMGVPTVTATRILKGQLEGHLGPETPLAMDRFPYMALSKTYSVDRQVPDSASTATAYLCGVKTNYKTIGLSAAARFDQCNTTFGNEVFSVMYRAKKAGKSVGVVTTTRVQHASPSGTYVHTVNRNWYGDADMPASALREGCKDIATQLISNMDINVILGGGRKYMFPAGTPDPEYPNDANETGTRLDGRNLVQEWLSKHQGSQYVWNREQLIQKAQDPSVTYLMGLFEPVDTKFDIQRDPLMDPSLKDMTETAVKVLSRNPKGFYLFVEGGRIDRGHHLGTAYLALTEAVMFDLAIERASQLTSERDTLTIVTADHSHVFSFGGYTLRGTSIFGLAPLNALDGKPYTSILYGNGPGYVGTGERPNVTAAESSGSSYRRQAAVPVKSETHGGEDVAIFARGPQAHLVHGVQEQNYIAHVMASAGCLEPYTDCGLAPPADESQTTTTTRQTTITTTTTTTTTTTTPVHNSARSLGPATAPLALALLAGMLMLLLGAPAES

As for `CN(CCO)c1ccc(CN=Nc2ccc([N+](=O)[O-])cc2S(=O)(=O)Nc2ccccc2C(=O)O)cc1`, the response was half-maximal at 17.5 µM (EC50). Turning to `O=C(NN=CC1=CC(=O)C(=O)CC1)NN=CC1=CC(=O)C(=O)CC1` [1,3-bis[[(Z)-(3-hydroxy-4-oxocyclohexa-2,5-dien-1-ylidene)methyl]amino]urea], the EC50 (usually the concentration at which the effect is half-maximal) turned out to be 4.96 µM. For the molecule `O=C1CC(=O)c2c(O)cc(O)c(O)c2C1=O` [4,5,7,8-tetrahydroxy-1,2-naphthoquinone], a half-maximal effect (EC50) was put at 9.93 µM.

The molecule `Cc1cc(=O)[nH]c(N=NCc2ccc(O)c(O)c2)n1` [MLS001194906] displayed an EC50 of 58.7 µM.
